Source: PMC12546632, “The role of cytochrome bc1 inhibitors in future tuberculosis treatment regimens” (Nature Communications, 2025)
Values after ≈ are worked out from the molar mass of the structure shown. Values joined by “and” are separate entries in the source; they are usually repeats but may differ in a detail not shown here. Equal values may be shown once. “Also recorded” adds a separate entry of the source. Read-outs that look alike come from different tables or passages of the source. Marks after values point to notes of the source that are not given here.

Key:
[1] = test system: M. tuberculosis ΔcydAB (Parent); assay: microbe, parasite or virus in culture; assay type: cell-based; settings: Mycobacterium tuberculosis
[2] = test system: M. tuberculosis reference strain H37Rv; assay: Survival under monotherapy in intravenous model (related to Study C); assay type: in vivo, Mycobacterium tuberculosis; settings: for Day of death, individual mice: monotherapy, read with the 1/0 flag of the same line (96 with flag 0)
M. tuberculosis H37Rv [3] = assay: MIC90 determination, H37Rv; assay type: cell-based, Mycobacterium tuberculosis; settings: Mycobacterium tuberculosis
[4] = test system: M. tuberculosis clinical isolates; assay: microbe, parasite or virus in culture; assay type: cell-based, Mycobacterium tuberculosis; settings: Mycobacterium tuberculosis
1A2 = target: T1, 1A2 (Homo sapiens, UniProt P05177); assay type: in vitro ADME
T1 construct: from tissue; host or cells: human liver microsomes

[5] = test system: M. tuberculosis cytochrome bd knockout (CytBd-KO) strain; design: method as in PMID 40191462; settings: acute mouse model; cited from earlier work
H37Rv_CydBd-KO = assay: microbe, parasite or virus in culture; assay type: cell-based, Mycobacterium tuberculosis; settings: Mycobacterium tuberculosis
H37Rv_CytBd-KO = assay: microbe, parasite or virus in culture; assay type: cell-based, Mycobacterium tuberculosis; settings: Mycobacterium tuberculosis; read-out: MBC99.9 (H37Rv_CytBd-KO)
2D6 = target: T2, 2D6 (Homo sapiens, UniProt P10635); assay type: in vitro ADME
T2 construct: from tissue; host or cells: human liver microsomes

2C8 = target: T3, 2C8 (Homo sapiens, UniProt P10632); assay type: in vitro ADME
T3 construct: from tissue; host or cells: human liver microsomes

in vivo [6] = settings: CD-1, mouse; for half-life: t½
[7] = female, Balb/c, mouse, in vivo, po, 5 mg/kg
in vitro [8] = settings: human
3A4 = target: T4, 3A4 (Homo sapiens, UniProt P08684); assay type: in vitro ADME
T4 construct: from tissue; host or cells: human liver microsomes

HepG2 cells = settings: human, 24 h
[9] = assay type: in vitro ADME; settings: hepatocytes
[10] = CD-1, mouse, in vivo
2C19 = target: T5, 2C19 (Homo sapiens, UniProt P33261); assay type: in vitro ADME
T5 construct: from tissue; host or cells: human liver microsomes

M. tuberculosis H37Rv [11] = assay: MBC99.9 determination, H37Rv; assay type: cell-based, Mycobacterium tuberculosis; settings: Mycobacterium tuberculosis, H37RV
[12] = assay type: in vitro ADME
Method: (§1) Details of the metabolic stability in liver microsomes and hepatocytes together with CYP inhibition in human liver microsomes and plasma protein binding have been published previously. The CYP induction assay was conducted by Puracyp Inc (www.puracyp.com). Studies were designed to evaluate the effect of compounds on the activation of human PXR (hPXR). The DPX2TM cells harbour the human PXR gene (NR1I2) and a luciferase reporter gene linked to two promoters identified in the human CYP3A4 gene, namely XREM and PXRE. These cells were seeded in a 96-well plate. Twenty-four hours after seeding, the cells were treated with various concentrations of compounds then incubated for an additional 24 h. Following this, the number of viable cells per well were determined using Promega’s CellTiter Fluor Cytotoxicity Assay. Briefly, One-Glo was added to the same wells and reporter gene activity was assessed. The luminescence light intensity was directly proportional to the extent of PXR activation and accompanying gene transcription in the DPX2TM cells.

human PXR (hPXR) = human PXR (hPXR) (Homo sapiens, UniProt O75469); assay type: in vitro ADME
Method: as §1

in vivo [13] = settings: female, Balb/c, mouse, po, 5 mg/kg
in vitro [14] = settings: human; remark: listed apart in the source
N1283 clinical isolate = assay type: cell-based, Mycobacterium tuberculosis; settings: biological replicates
MDR-TB strains = settings: cited from earlier work
WT H37Rv = assay type: cell-based, Mycobacterium tuberculosis; settings: biological replicates
[15] = test system: Salmonella typhimurium strains TA98 and TAMix
2C9 = target: T6, 2C9 (Homo sapiens, UniProt P11712); assay type: in vitro ADME
T6 construct: from tissue; host or cells: human liver microsomes
T6 sequence (P11712 whole entry): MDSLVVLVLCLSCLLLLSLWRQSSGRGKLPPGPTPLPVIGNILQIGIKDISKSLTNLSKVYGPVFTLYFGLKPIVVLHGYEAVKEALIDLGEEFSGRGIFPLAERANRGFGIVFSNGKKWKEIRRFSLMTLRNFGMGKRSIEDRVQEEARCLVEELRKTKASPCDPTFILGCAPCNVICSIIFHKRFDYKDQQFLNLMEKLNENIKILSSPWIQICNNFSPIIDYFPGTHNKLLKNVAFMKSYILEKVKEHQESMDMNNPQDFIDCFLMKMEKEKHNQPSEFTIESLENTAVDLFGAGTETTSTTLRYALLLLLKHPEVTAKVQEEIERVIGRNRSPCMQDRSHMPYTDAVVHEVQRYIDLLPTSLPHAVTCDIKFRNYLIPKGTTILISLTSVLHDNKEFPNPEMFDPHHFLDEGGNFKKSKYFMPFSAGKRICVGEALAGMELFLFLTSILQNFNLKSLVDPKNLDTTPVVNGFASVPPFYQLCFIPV

human PXR (hPXR), sequence (O75469 whole entry): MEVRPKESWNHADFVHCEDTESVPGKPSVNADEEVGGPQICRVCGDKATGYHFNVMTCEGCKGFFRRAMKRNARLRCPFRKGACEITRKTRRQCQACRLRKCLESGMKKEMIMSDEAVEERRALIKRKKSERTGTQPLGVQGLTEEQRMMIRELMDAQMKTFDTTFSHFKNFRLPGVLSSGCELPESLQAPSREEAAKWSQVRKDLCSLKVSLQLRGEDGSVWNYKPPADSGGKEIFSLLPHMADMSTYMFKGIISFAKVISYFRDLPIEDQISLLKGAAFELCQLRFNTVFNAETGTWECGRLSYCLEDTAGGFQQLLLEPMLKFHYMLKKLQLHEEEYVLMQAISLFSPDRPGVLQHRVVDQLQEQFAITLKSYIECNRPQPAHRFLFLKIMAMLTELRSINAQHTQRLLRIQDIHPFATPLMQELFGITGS
T4 sequence (P08684 whole entry): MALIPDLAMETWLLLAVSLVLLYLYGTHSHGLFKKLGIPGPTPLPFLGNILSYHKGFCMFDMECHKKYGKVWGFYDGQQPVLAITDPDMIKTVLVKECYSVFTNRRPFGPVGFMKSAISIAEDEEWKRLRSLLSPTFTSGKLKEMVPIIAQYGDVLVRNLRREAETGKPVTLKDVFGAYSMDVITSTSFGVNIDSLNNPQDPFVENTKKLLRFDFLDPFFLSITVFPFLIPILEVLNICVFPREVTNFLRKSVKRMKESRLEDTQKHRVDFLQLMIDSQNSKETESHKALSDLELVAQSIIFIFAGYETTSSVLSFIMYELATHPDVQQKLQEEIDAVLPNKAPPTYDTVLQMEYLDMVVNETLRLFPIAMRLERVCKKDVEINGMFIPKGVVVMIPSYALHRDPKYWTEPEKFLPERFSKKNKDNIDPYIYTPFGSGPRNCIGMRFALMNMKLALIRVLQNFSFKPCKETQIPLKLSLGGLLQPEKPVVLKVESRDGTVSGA
T1 sequence (P05177 whole entry): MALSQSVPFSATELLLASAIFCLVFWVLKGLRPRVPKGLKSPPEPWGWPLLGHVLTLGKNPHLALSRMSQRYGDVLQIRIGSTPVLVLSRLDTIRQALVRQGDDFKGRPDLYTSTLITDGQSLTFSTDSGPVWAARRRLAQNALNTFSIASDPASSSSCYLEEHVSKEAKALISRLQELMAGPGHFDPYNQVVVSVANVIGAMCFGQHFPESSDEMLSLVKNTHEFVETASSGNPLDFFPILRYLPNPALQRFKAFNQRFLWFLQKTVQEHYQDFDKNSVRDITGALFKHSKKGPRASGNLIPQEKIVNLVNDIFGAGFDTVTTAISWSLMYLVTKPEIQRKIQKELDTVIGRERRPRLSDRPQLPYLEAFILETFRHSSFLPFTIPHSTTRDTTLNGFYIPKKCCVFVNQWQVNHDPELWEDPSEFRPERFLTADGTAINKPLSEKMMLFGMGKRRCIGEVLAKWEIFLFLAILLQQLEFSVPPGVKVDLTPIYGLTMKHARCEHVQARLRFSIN
T3 sequence (P10632 whole entry): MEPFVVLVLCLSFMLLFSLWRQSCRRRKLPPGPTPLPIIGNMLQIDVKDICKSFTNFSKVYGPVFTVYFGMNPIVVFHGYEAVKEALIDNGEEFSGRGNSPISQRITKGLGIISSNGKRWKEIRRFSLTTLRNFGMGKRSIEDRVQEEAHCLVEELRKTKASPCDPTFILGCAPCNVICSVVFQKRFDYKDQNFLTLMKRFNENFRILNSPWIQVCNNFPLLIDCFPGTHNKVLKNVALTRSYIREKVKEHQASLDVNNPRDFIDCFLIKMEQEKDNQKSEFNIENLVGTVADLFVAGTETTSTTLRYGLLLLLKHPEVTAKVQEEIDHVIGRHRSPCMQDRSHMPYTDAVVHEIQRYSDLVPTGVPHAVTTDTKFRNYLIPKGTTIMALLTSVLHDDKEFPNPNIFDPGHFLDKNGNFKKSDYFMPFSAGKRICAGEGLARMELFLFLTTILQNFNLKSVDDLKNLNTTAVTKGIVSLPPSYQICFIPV
T5 sequence (P33261 whole entry): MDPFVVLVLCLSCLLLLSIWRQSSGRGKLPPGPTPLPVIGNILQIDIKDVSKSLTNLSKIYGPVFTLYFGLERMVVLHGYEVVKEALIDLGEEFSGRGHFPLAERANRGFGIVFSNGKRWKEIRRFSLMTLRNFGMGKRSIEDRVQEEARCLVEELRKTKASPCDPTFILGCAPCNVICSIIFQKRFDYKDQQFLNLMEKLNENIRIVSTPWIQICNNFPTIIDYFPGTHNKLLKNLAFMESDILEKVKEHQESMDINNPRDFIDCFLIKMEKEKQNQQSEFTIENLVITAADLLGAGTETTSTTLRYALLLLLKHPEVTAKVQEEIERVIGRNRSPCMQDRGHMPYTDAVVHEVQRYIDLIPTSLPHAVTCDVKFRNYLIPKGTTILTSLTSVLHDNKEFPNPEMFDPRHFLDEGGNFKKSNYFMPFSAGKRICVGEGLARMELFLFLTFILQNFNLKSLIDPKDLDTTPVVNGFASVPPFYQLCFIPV
T2 sequence (P10635 whole entry): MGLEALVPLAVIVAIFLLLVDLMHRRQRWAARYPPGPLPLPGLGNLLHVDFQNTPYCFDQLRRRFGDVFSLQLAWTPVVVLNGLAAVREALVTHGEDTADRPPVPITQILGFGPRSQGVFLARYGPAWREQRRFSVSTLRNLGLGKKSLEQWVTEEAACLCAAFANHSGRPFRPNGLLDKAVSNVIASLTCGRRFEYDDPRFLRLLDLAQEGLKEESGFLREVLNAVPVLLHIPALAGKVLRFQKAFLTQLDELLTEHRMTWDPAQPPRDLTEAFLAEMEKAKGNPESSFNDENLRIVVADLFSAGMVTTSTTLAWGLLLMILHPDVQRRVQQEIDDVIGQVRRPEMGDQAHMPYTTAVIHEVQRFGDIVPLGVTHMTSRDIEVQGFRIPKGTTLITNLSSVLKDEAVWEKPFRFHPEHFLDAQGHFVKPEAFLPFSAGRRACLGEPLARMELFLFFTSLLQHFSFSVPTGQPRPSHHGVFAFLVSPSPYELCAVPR

COc1nc2ccc(Br)cc2cc1[C@@H](c1ccccc1)[C@@](O)(CCN(C)C)c1cccc2ccccc12 [Bedaquiline, bedaquiline, reference compound]
MIC50 [1]: 0.05 µM (≈ 0.0278 µg/mL) | Survival of mice under monotherapy ([2]; in vivo, iv): 100% | Day of death, individual mice ([2]; intravenous model): 96 | MIC90 (M. tuberculosis H37Rv [3]; strain H37Rv (Institut Pasteur, lineage 4), read-out: MIC90): 0.197 µM (≈ 0.109 µg/mL) | MIC90 ([4]; strain Mtb-0617 (Karonga, lineage 3)): 0.431 µM (≈ 0.239 µg/mL) | MIC90 ([4]; strain Mtb-2703 (Karonga, lineage 3)): 0.064 µM (≈ 0.0356 µg/mL) | MIC90 ([4]; strain Mtb-4779 (Karonga, lineage 2)): 0.045 µM (≈ 0.025 µg/mL) | MIC90 ([4]; strain Mtb-4980 (Karonga, lineage 4)): 0.063 µM (≈ 0.035 µg/mL) | MIC90 ([4]; strain Mtb-6787 (Karonga, lineage 4)): 0.053 µM (≈ 0.0294 µg/mL) | MIC90 ([4]; strain Mtb-7489 (Karonga, lineage 1)): 0.43 µM (≈ 0.239 µg/mL) | MIC90 ([4]; strain Mtb-7496 (Karonga, lineage 3)): 0.106 µM (≈ 0.0589 µg/mL) | MIC90 ([4]; strain Mtb-9271 (Karonga, lineage 4)): 0.05 µM (≈ 0.0278 µg/mL) | MIC90 ([4]; strain Mtb-61164 (Karonga, lineage 2)): 0.188 µM (≈ 0.104 µg/mL) | MIC90 ([4]; strain N0054 (Gagneux, lineage 3)): 0.354 µM (≈ 0.197 µg/mL) | MIC90 ([4]; strain N0072 (Gagneux, lineage 1)): 0.17 µM (≈ 0.0944 µg/mL) | MIC90 ([4]; strain N1283 (Gagneux, lineage 4)): 0.104 µM (≈ 0.0578 µg/mL)

NNC(=O)c1ccncc1 [Isoniazid, isoniazid]
MIC50 [1]: 0.51 µM (≈ 0.0699 µg/mL)

CCc1nc2ccc(Cl)cn2c1C(=O)NCc1ccc(C2CC3(C2)CN(S(=O)(=O)C(F)(F)F)C3)cc1 [JNJ-2901]
IC50 (1A2): > 10 µM | reduction in bacterial burden [5]: 4 log | MIC90 (H37Rv_CydBd-KO): 0.006 µM (≈ 0.00325 µg/mL) | MBC (H37Rv_CytBd-KO): 0.015 µM (≈ 0.00811 µg/mL) | IC50 (2D6): > 10 µM | IC50 (2C8): > 10 µM | MRT (in vivo [6]; iv, 1 mg/kg): 9.1 ± 0.6 h | Vd (in vivo [6]; iv, 1 mg/kg): 4.4 ± 0.8 L/kg | clearance (in vivo [6]; iv, 1 mg/kg): 6.4 ± 1.6 mL/min/kg | half-life (in vivo [6]; iv, 1 mg/kg): 12 ± 0.2 h | bioavailability (in vivo [6]; female, po, 5 mg/kg): 70 ± 14% | AUC0-inf (in vivo [6]; female, po, 5 mg/kg, AUC0-inf): 9500 ± 1850 ng·h/mL | Cmax (in vivo [6]; female, po, 5 mg/kg, Cmax): 474 ± 29 ng/mL | Tmax (in vivo [6]; female, po, 5 mg/kg, Tmax): 7 h | half-life (in vivo [6]; female, po, 5 mg/kg): 10 h | AUC0-inf [7]: 28500 ± 935 ng·h/mL | IC20 at 72 h (in vitro [8]): 11.8 µM | IC50 (3A4): > 10 µM | MIC50 [1]: 0.01 µM (≈ 0.00541 µg/mL) | IC50 (HepG2 cells): > 100 µM | Day of death, individual mice ([2]; intravenous model, listed as J-901): 16* and 20 and 54 and 26 and 77 and 82 | Survival of mice under monotherapy ([2]; intravenous model, six mice per group, treated for three months, 5 days per week, bedaquiline 25, moxifloxacin 100, JNJ-2901 10 mg kg-1): inability to rescue mice | Mouse Hep Clint [9]: 15 µL min-1 106 cells-1 | CLp as % LBF ([10]; iv, 1 mg/kg): ~ 9 % LBF | AUC0-inf ([10]; female, po, 5 mg/kg): 5287 ± 656 ng·h/mL | IC50 (2C19): > 10 µM | MBC (M. tuberculosis H37Rv [11]): > 0.5 µM | Dog Hep Clint ([12]; hepatocytes): 13 µL min-1 106 cells-1 | Human Hep Clint ([12]; hepatocytes): 10 µL min-1 106 cells-1 | Rat Hep Clint ([12]; hepatocytes): 16 µL min-1 106 cells-1 | Dog LM Clint ([12]; microsomes): 13.1 µL min-1 mg protein-1 | Human LM Clint ([12]; microsomes): 63.3 µL min-1 mg protein-1 | Mouse LM Clint ([12]; microsomes): 41.0 µL min-1 mg protein-1 | Rat LM Clint ([12]; microsomes): 17.9 µL min-1 mg protein-1 | Cyp3A4 ind. (%ctrl) (human PXR (hPXR); 1.25 µM): 3.1 %ctrl | Cyp3A4 ind. (%ctrl) (human PXR (hPXR); 10 µM): 11 %ctrl | Cmax (in vivo [13]): 2310 ± 767 ng/mL | AUC0-inf (in vivo [13]; AUC0-inf): 38500 ng·h/mL | Cmax (in vivo [13]; Cmax, Balb/c mouse, PO 5 mg kg-1, 0.5 w/v Methocel (susp.)): 2660 ± 469 ng/mL | half-life (in vivo [13]; t½): 8.6 ± 2.8 h | MIC90 (M. tuberculosis H37Rv [3]; H37RV, read-out: MIC90 (H37Rv)): 0.009 µM (≈ 0.00487 µg/mL) | IC50 at 24 h (in vitro [14]): > 100 µM | CFU counts (N1283 clinical isolate; Conc 8 nM): 9000000 CFU and 800000 CFU and 200000 CFU | CFU counts (N1283 clinical isolate; Conc 32 nM): 110000 CFU and 300000 CFU and 80000 CFU and 50000 CFU | CFU counts (N1283 clinical isolate; Conc 128 nM): 20000 CFU and 50000 CFU and 90000 CFU and 80000 CFU | activity against MDR-TB strains (MDR-TB strains): sub-nanomolar; also recorded: more active compared to lab-adapted strains | CFU counts (WT H37Rv; Conc 8 nM): 80000000 CFU and 35000000 CFU and 53000000 CFU and 30000000 CFU | CFU counts (WT H37Rv; Conc 32 nM): 60000000 CFU and 30000000 CFU and 17000000 CFU and 12000000 CFU | CFU counts (WT H37Rv; Conc 128 nM): 20000000 CFU and 14000000 CFU and 12000000 CFU | Mutagenicity (AMES II) [15]: negative | IC50 (2C9): > 10 µM
